The results in this text go back to patent US20090186907A1, “Pyrazinones As Cellular Proliferation Inhibitors” (E.I. DuPont De Nemours and Company, priority 2006, published 2009).

The structures appear in SMILES notation.

In data set [1] the test system is rhabdomyosarcoma (RD) cells. Kind of data set: Assay for inhibition of cell proliferation (MTT), rhabdomyosarcoma cells. The data set is classed as cell-based, human. The following applies: for IC50: rhabdomyosarcoma (RD) cells, MTT, 96 h incubation; for RD Ratio (paclitaxel/compound): ratio of paclitaxel IC50 to compound IC50, RD cells. As for the experimental part: (§1) Human rabdomyosarcoma (RD) and mouse neuroblastoma (N1E115) cell lines were obtained from the American Type Culture Collection (ATCC, Rockville, Md.). The RD cells were grown in Dulbecco's modified eagle medium (DMEM) supplemented with 4 mM glutamine, containing 10% fetal bovine serum (ATCC #30-2020) and supplemented with 1% penicillin and 1% streptomycin. When confluent, the cells were maintained by passage (about once per week) until needed. The N1E115 line was also cultured in DMEM with 4 mM glutamine containing 10% newborn calf serum (Gibco, Grand Island, N.Y.) and likewise maintained.
(§2) The proliferation of rhabdomyosarcoma cells was determined using a cell proliferation assay kit based on the formation of insoluble formazan crystals from 3-(4,5-dimethylthiazol-2-yl)-2,5-diphenyltetrazolium bromide (MTT). The rhabdomyosarcoma cells were cultured to a density of 10^5 cells per mL. The cell culture (100 μL) was dispensed into wells of a 96-well plate to 10^4 cells per well. The plate was incubated at 37° C. for 3 h until the cells firmly attached to the well surfaces.
(§3) A second 96-well round bottom plate was made up containing the test compounds, serially diluted to cover the concentration range of interest using the DMEM medium plus antibiotics. The final concentration of DMSO in which the compounds were initially dissolved was maintained at a constant 0.5% in each well and the volume of the compounds in the plate was 220 μL. Following the 3 h incubation the medium was removed from the plate containing the cells and replaced with 200 μL of the solutions containing the compounds. The cells were incubated for a further 96 h before the assessment of growth inhibition using MTT.
(§4) The cells were left bathing in 100 μL of the saline solution to which was added 100 μL of MTT in saline (12 mM). Incubation was continued for 4 h at 37° C. to produce the blue formazan color which was quantified by optical density measurements at 570 nm. Background correction of all test wells was performed by subtraction of the yellow MTT solution color measured at 570 nm in cell-free wells. The data were normalized to solvent only control wells.

Data set [2] deals with neuroblastoma (N1E115) cells. Description: Assay for inhibition of cell proliferation (MTT), neuroblastoma cells. Particulars: for IC50: neuroblastoma (N1E115) cells, MTT; for N1E115 Ratio (paclitaxel/compound): ratio of paclitaxel IC50 to compound IC50, N1E115 cells. It is filed as cell-based, mouse. Here is the method: as §1, §2, §3, §4

`CC(C)Cn1c(-c2c(F)cccc2F)c(Cl)nc(C#N)c1=O` [Compound 5, 6-Chloro-5-(2,6-difluorophenyl)-3,4-dihydro-4-(2-methylpropyl)-3-oxopyrazinecarbonitrile]: the melting point (usually the temperature, or range, at which the solid turns liquid) was 100 to 102 °C.
Same read-out and setting: for `CC(C)Cn1c(-c2c(F)cccc2F)c(Cl)nc(-c2cn(C)cn2)c1=O` [Compound 85, 5-Chloro-6-(2,6-difluorophenyl)-1-(2-methylpropyl)-3-(1-methyl-1H-imidazol-4-yl)-2(1H)-pyrazinone] the value was 191 to 193 °C; for `Cc1nc(-n2cccn2)c(=O)n(CC(C)C)c1-c1c(F)cccc1F` [Compound 149, 5-Methyl-6-(2,6-difluorophenyl)-1-(2-methylpropyl)-3-(1H-pyrazol-1-yl)-2(1H)-pyrazinone], 105 to 106 °C.
Same read-out and setting: for `COc1ccc(Cn2c(-c3c(F)cccc3F)c(Cl)nc(-n3cccn3)c2=O)cc1` [Compound 271, 5-Chloro-6-(2,6-difluorophenyl)-1-[(4-methoxyphenyl)methyl]-3-(1H-pyrazol-1-yl)-2(1H)-pyrazinone] the value was 235 to 236 °C; for `CC(C)Cn1c(-c2c(F)cccc2F)cnc(-n2cccn2)c1=O` [Compound 342, 6-(2,6-Difluorophenyl)-1-(2-methylpropyl)-3-(1H-pyrazol-1-yl)-2(1H)-pyrazinone], 91 to 92 °C.
Same read-out and setting: for `O=c1c(-n2cccn2)nc(Cl)c(-c2c(F)cc(F)cc2F)n1CC(F)(F)C(F)(F)F` [Compound 468, 5-Chloro-1-(2,2,3,3,3-pentafluoropropyl)-3-(1H-pyrazol-1-yl)-6-(2,4,6-trifluorophenyl)-2(1H)-pyrazinone] the value was 147 to 149 °C.
Take `CC[C@H](C)Cn1c(-c2c(F)cc(OCCCN(C)C)cc2F)c(Cl)nc(-n2ccc(C)n2)c1=O` [Compound 498, 5-chloro-6-[4-[3-(dimethylamino)propoxy]-2,6-difluorophenyl]-1-[(2S)-2-methylbutyl]-3-(3-methyl-1H-pyrazol-1-yl)-2(1H)-pyrazinone]: the IC50 (in general, the concentration that inhibits the measured activity by half) came to 3.8 nM in data set [1] (Homo sapiens) and 14 nM in data set [2] (Mus musculus, N1E-115). Further, the “RD Ratio (paclitaxel/compound)” value in data set [1] came to 4.47. For the same compound, the “N1E115 Ratio (paclitaxel/compound)” value in data set [2] turned out to be 6.29.
As to `CC[C@H](C)Cn1c(-c2c(F)cc(OCCCN(C)C(C)=O)cc2F)c(Cl)nc(-n2cccn2)c1=O` [Compound 499], in data set [1], the “RD Ratio (paclitaxel/compound)” value is recorded as 1.70 and inhibition was half-maximal at 10 nM (IC50). Further, in data set [2], half-maximal inhibition (IC50) was put at 12 nM and the “N1E115 Ratio (paclitaxel/compound)” value is listed as 7.33.
On the same counts, the results for `CNCCCOc1cc(F)c(-c2c(Cl)nc(-n3cccn3)c(=O)n2CC(C)C)c(F)c1.Cl` [Compound 500] are 8.50, 2 nM, 16 nM and 5.50.
Take `CC[C@H](C)Cn1c(-c2c(F)cc(OC(C)=O)cc2F)c(Cl)nc(-n2cccn2)c1=O` [Compound 501]: in data set [1], the “RD Ratio (paclitaxel/compound)” value was found to be 0.30 and the IC50 was 57 nM. Moreover, in data set [2], 62 nM corresponded to half-maximal inhibition (IC50) and the “N1E115 Ratio (paclitaxel/compound)” value was found to be 1.42.
Taken in the same sequence, the figures for `CC[C@H](C)Cn1c(-c2c(F)cc(O)cc2F)c(Cl)nc(-n2cccn2)c1=O` [Compound 503] were 0.15, 114 nM, 256 nM and 0.34.
On the same counts, the results for `CC[C@H](C)Cn1c(-c2c(F)cc(OC)cc2F)c(Cl)nc(-n2ccc(C)n2)c1=O` [Compound 504] are 1.04, 16.3 nM, 102 nM and 0.86.
Regarding `CC(=O)O[C@H]1C(=O)[C@@]2(C)[C@H]([C@H](OC(=O)c3ccccc3)[C@]3(O)C[C@H](OC(=O)[C@H](O)[C@@H](NC(=O)c4ccccc4)c4ccccc4)C(C)=C1C3(C)C)[C@]1(OC(C)=O)CO[C@@H]1C[C@@H]2O` [paclitaxel, reference compound], the IC50 in data set [1] (Homo sapiens) was 17 nM; in data set [2] (Mus musculus, N1E-115), 88 nM.
